From patent publication US7189519B2, “Bead-based detection of ligand-GPCR-G protein complexes” (STC.UNM, priority 1998, dated 2007)
Residues, ends and D or L forms follow the SMILES beside them. *: point of attachment. For = O=C*

System: FPR-GFP with Gαβγ on DCNi beads (LR^FG ternary complex)
Assay: Standard LRG assembly assay with FPR-GFP (R^F) on G protein beads, flow cytometry
Type: biochemical, human
Conditions: for EC50: standard assembly with 30 nM R^F, three experiments, read-out: EC50 for LRG formation
Protocol: Standard LRG Assembly Assay. […] Each mixture was mixed by pipetting to ensure a uniform starting suspension of the beads in 96 V-well plates (Costar), and then mixed at low speed on a vortex mixer at 7° for two hours. The 10 μl assays were individually brought to 200 μl with 0.1% dodecyl maltoside in buffer A in 12×75 mm tubes for flow cytometric measurement of fluorescence of the beads. LRG assembly was defined as the difference between fluorescence without GTPγS and that with GTPγS. All determinations were done in duplicate.

Row | EC50 | Compound | calculated maximal assembly, of the LRG assembly of the longer peptides (near the limit of solubility of fML)
1 | 5300 nM | CSCC[C@H](NC=O)C(=O)N[C@@H](CC(C)C)C(=O)O [fML] (For-Met-Leu-OH; C-terminus assumed) | 78+/−3%
2 | 27 nM | CSCC[C@H](NC=O)C(=O)N[C@@H](CC(C)C)C(=O)N[C@@H](Cc1ccccc1)C(=O)N[C@@H](Cc1ccccc1)C(=O)O [fMLFF] (For-MLFF-OH; C-terminus assumed) | –
